{"source": "patent US12491185B2", "about": "“Inhibitors of mPTP” (NRG Therapeutics Ltd, priority 2023, dated 2025)"}
{"test_system": "mPTP", "assay": "mPTP activity (Ca2+ retention) assay in isolated rat liver mitochondria", "assay_type": "biochemical", "details": "examples tested by different contract research organisations, believed comparable", "excerpt": "Pharmacological inhibition or modulation of the mPTP can be measured in well characterised ‘Ca^2+ retention’ assays performed in isolated mitochondria. In vitro, isolated mitochondria rapidly sequester exogenous Ca^2+ until the intramitochondrial Ca^2+ concentration reaches the threshold for mPTP activation. Once the pore is activated, mitochondrial integrity is compromised and the stored Ca^2+ is released. The distribution of Ca^2+ between extra- and intra-mitochondrial compartments can be measured in real time with the use of membrane-impermeant Ca^2+ sensitive fluorescent dyes. Depending on the configuration of the assay, inhibition or modulation of the mPTP either delays the opening of the pore or increases the concentration of Ca^2+ required to induce mPTP opening.\nMPTP activity was measured in mitochondria freshly isolated from female Sprague Dawley (250 to 300 gram) rat livers using the following method. Cervical dislocation was performed on the rat. The liver was then perfused in-situ with −40 ml cold Dulbecco's Phosphate Buffered Saline (DPBS) prior to dissection and transferred into 30 ml Isolation Buffer (250 mM Sucrose, 10 mM KCl, 1 mM EGTA, 1 mM EDTA, 25 mM HEPES, adjusted to pH 7.5 with 1M NaOH). Each lobe of the liver was then removed from the buffer, minced using tweezers and a scalpel into −5 mm pieces then transferred into a 50 ml Potterton dounce homogenization tube on ice containing 30 ml ice-cold centrifugation buffer (300 mM Trehalose, 25 mM HEPES, 1 mM EGTA, 1 mM EDTA, 10 mM KCl, adjusted to pH 7.5 with 1M NaOH and supplemented with 0.1% bovine serum albumin (BSA) and complete protease inhibitor cocktail (one tablet of inhibitor per 50 mls of buffer). Homogenisation was carried out using a teflon pestle at 1800 rpm. The slurry was centrifuged at 800 g for 10 min at 4° C., then the supernatant centrifuged at 10,000 g for 10 min. The pellet was washed once with FLIPR assay buffer (75 mM Mannitol, 25 mM Sucrose, 5 mM Potassium Phosphate Monobasic, 20 mM Tris base, 100 mM KCl, 0.1% BSA adjusted to pH 7.4 with 5M HCl) centrifuged again, then resuspended in FLIPR assay buffer to a concentration of 8.8 mg/ml protein.\nTested compounds (10 mM stock in DMSO) were serially diluted in DMSO in half log steps to generate 10 test concentrations (final concentrations in assay 30 μM to 1 nM). An intermediate dilution of 5 μl DMSO samples into 247 μl FLIPR assay buffer was carried out prior to transfer of 5 μl into duplicate wells of a 384 well polypropylene assay plate. Control wells were 0.5% (v/v) DMSO and 5 μM cyclosporin A.\nA stock mitochondria/Fluo5N assay solution was prepared in 5.6 ml FLIPR assay buffer (at RT) supplemented with succinate disodium salt (10 mM), rotenone (1 μM), Fluo5N pentapotassium salt (2 μM) and 1 ml mitochondria suspension, then transferred (15 μl) into the assay plate containing test compounds and incubated for 10 min at RT. Assay plates were processed for fluorescence detection on either a FLIPR Tetra (Molecular Devices) or CLARIOstar (BMG) plate reader. For kinetic fluorescence detection on the FLIPR, dye fluorescence was measured every 3 sec for a total of 10 min. After 12 sec, a 2.5 μl bolus of CaCl2 (75 μM) was added from a source plate containing 675 μM CaCl2 in FLIPR assay buffer. Alternatively, the 2.5 μl addition of CaCl2 was performed using a Viaflow 384, plates were incubated at RT for 10 min, and dye fluorescence measured after 10 min on the CLARIOstar plate reader. pIC50 values for tested compounds were calculated using the fluorescence value collected at the 10 min timepoint on either plate reader, with % inhibition calculated using the DMSO control and cyclosporin A values as 0 and 100% respectively."}
{"compound": "CC(NC(=O)c1nn(C)c(=O)[nH]1)C(C)(C)Cc1ccccc1", "note": "(single isomer, unassigned) [Example 39A, N-(3,3-dimethyl-4-phenylbutan-2-yl)-1-methyl-5-oxo-4,5-dihydro-1H-1,2,4-triazole-3-carboxamide]", "mPTP Rat liver pIC50": "<4.57"}
{"compound": "CC(C)[C@@H](CNC(=O)c1nn(C)c(=O)[nH]1)Cc1ccccc1", "note": "(single isomer, unassigned) [Example 46A]", "mPTP Rat liver pIC50": 4.71}
{"compound": "O=C(NCC1(Cc2ccccc2)CCC1)c1ccnc(=O)[nH]1", "note": "[Example 6, N-((1-benzylcyclobutyl)methyl)-2-oxo-2,3-dihydropyrimidine-4-carboxamide]", "mPTP Rat liver pIC50": 5.13}
{"compound": "CC(C)C(CNC(=O)c1nn(C)c(=O)[nH]1)Cc1ccccc1", "note": "(stereo not drawn) [Example 45, N-(2-benzyl-3-methylbutyl)-1-methyl-5-oxo-4,5-dihydro-1H-1,2,4-triazole-3-carboxamide]", "mPTP Rat liver pIC50": 6.50}
{"compound": "CCCC(CNC(=O)c1nn(C)c(=O)[nH]1)Cc1ccccc1", "note": "(stereo not drawn) [Example 55, N-(2-benzylpentyl)-1-methyl-5-oxo-4,5-dihydro-1H-1,2,4-triazole-3-carboxamide]", "mPTP Rat liver pIC50": 5.44}
{"compound": "Cn1nc(C(=O)NCC2(C)Cc3ccccc3C2)[nH]c1=O", "note": "[Example 58]", "mPTP Rat liver pIC50": 5.03}
{"compound": "Cn1nc(C(=O)NCCC(C)(C)c2ccccc2)[nH]c1=O", "note": "[Example 59]", "mPTP Rat liver pIC50": 5.06}
{"compound": "Cn1nc(C(=O)NCC2CCc3ccccc3C2)[nH]c1=O", "note": "(stereo not drawn) [Example 60]", "mPTP Rat liver pIC50": 5.10}
{"compound": "COc1ccccc1CC1(CNC(=O)c2nn(C)c(=O)[nH]2)CCC1", "note": "[Example 61, N-((1-(2-methoxybenzyl)cyclobutyl)methyl)-1-methyl-5-oxo-4,5-dihydro-1H-1,2,4-triazole-3-carboxamide]", "mPTP Rat liver pIC50": 4.99}
{"compound": "Cn1cc(C(=O)NCC2(Cc3ccccc3)CCC2)[nH]c1=O", "note": "[Example 63, N-((1-benzylcyclobutyl)methyl)-1-methyl-2-oxo-2,3-dihydro-1H-imidazole-4-carboxamide]", "mPTP Rat liver pIC50": 4.65}
{"compound": "O=C1COCC(C(=O)NCC2(Cc3ccccc3)CCC2)N1", "note": "(stereo not drawn) [Example 65, N-((1-benzylcyclobutyl)methyl)-5-oxomorpholine-3-carboxamide]", "mPTP Rat liver pIC50": "<4.52"}
{"compound": "O=C(NCC1(Cc2ccccc2)CCC1)c1nc2ccccc2c(=O)[nH]1", "note": "[Example 66, N-((1-benzylcyclobutyl)methyl)-4-oxo-3,4-dihydro-quinazoline-2-carboxamide]", "mPTP Rat liver pIC50": "<4.52"}
{"compound": "Cn1nc(C(=O)NCC(C)(C)Cc2ccccc2)ccc1=O", "note": "[Example 67, N-(2,2-dimethyl-3-phenylpropyl)-1-methyl-6-oxo-1,6-dihydro-pyridazine-3-carboxamide]", "mPTP Rat liver pIC50": "<4.52"}
{"compound": "Cn1c(=O)[nH]cc(C(=O)NCC(C)(C)Cc2ccccc2)c1=O", "note": "[Example 68, N-(2,2-dimethyl-3-phenylpropyl)-3-methyl-2,4-dioxo-1,2,3,4-tetrahydro-pyrimidine-5-carboxamide]", "mPTP Rat liver pIC50": "<4.52"}
{"compound": "CC(C)(CNC(=O)c1cc(C(F)(F)F)n[nH]1)Cc1ccccc1", "note": "[Example 69, N-(2,2-dimethyl-3-phenylpropyl)-3-(trifluoromethyl)-1H-pyrazole-5-carboxamide]", "mPTP Rat liver pIC50": "<4.52"}
{"compound": "Cn1nc(C(=O)NCC(CO)Cc2ccccc2)[nH]c1=O", "note": "(stereo not drawn) [Example 70, N-(2-benzyl-3-hydroxypropyl)-1-methyl-5-oxo-4,5-dihydro-1H-1,2,4-triazole-3-carboxamide]", "mPTP Rat liver pIC50": 4.85}
{"compound": "Cn1nc(C(=O)NC(CCc2ccccc2)CC(F)(F)F)[nH]c1=O", "note": "(stereo not drawn) [Example 71, 1-methyl-5-oxo-N-(1,1,1-trifluoro-5-phenylpentan-3-yl)-4,5-dihydro-1H-1,2,4-triazole-3-carboxamide]", "mPTP Rat liver pIC50": "<4.52"}
{"compound": "CN(CC(C)(C)Cc1ccccc1)C(=O)c1nn(C)c(=O)[nH]1", "note": "[Example 72, N-(2,2-dimethyl-3-phenylpropyl)-N,1-dimethyl-5-oxo-4,5-dihydro-1H-1,2,4-triazole-3-carboxamide]", "mPTP Rat liver pIC50": 4.67}
{"compound": "Cn1nc(C(=O)NCC2(Cc3ccc(F)cc3F)CCCCC2)[nH]c1=O", "note": "[Example 73, N-((1-(2,4-Difluorobenzyl)cyclohexyl)methyl)-1-methyl-5-oxo-4,5-dihydro-1H-1,2,4-triazole-3-carboxamide]", "mPTP Rat liver pIC50": 5.84}
{"compound": "CC[C@@H](Cc1ccccc1)[C@H](C)NC(=O)c1nn(C)c(=O)[nH]1", "note": "[Example 74, N-((2S,3S)-3-benzylpentan-2-yl)-1-methyl-5-oxo-4,5-dihydro-1H-1,2,4-triazole-3-carboxamide]", "mPTP Rat liver pIC50": 5.98}
{"compound": "COc1cccc(CC2(CNC(=O)c3nn(C)c(=O)[nH]3)CCC2)c1", "note": "[Example 75, N-((1-(3-Methoxybenzyl)cyclobutyl)methyl)-1-methyl-5-oxo-4,5-dihydro-1H-1,2,4-triazole-3-carboxamide]", "mPTP Rat liver pIC50": 5.77}
{"compound": "Cn1nc(C(=O)NCC2(Cc3ccccc3C(F)F)CCC2)[nH]c1=O", "note": "[Example 76, N-((1-(2-(Difluoromethyl)benzyl)cyclobutyl)methyl)-1-methyl-5-oxo-4,5-dihydro-1H-1,2,4-triazole-3-carboxamide]", "mPTP Rat liver pIC50": 5.65}
{"compound": "Cn1nc(C(=O)NCC2(Cc3cccc(C4CC4)c3)CCC2)[nH]c1=O", "note": "[Example 77, N-((1-(3-Cyclopropylbenzyl)cyclobutyl)methyl)-1-methyl-5-oxo-4,5-dihydro-1H-1,2,4-triazole-3-carboxamide]", "mPTP Rat liver pIC50": 4.78}
{"compound": "CCc1ccccc1CC1(CNC(=O)c2nn(C)c(=O)[nH]2)CCC1", "note": "[Example 82, N-((1-(2-Ethylbenzyl)cyclobutyl)methyl)-1-methyl-5-oxo-4,5-dihydro-1H-1,2,4-triazole-3-carboxamide]", "mPTP Rat liver pIC50": 5.27}
{"compound": "Cn1nc(C(=O)NCC2(Cc3cccc(Cl)c3F)CCC2)[nH]c1=O", "note": "[Example 85, N-((1-(3-Chloro-2-fluorobenzyl)cyclobutyl)methyl)-1-methyl-5-oxo-4,5-dihydro-1H-1,2,4-triazole-3-carboxamide]", "mPTP Rat liver pIC50": 5.83}
{"compound": "Cc1cc(F)ccc1CC1(CNC(=O)c2nn(C)c(=O)[nH]2)CCC1", "note": "[Example 86, N-((1-(4-Fluoro-2-methylbenzyl)cyclobutyl)methyl)-1-methyl-5-oxo-4,5-dihydro-1H-1,2,4-triazole-3-carboxamide]", "mPTP Rat liver pIC50": 5.86}
{"compound": "Cn1nc(C(=O)NCC2(Cc3ccc(F)cc3C(F)(F)F)CCC2)[nH]c1=O", "note": "[Example 87, N-((1-(4-Fluoro-2-(trifluoromethyl)benzyl)cyclobutyl)methyl)-1-methyl-5-oxo-4,5-dihydro-1H-1,2,4-triazole-3-carboxamide]", "mPTP Rat liver pIC50": 5.57}
{"compound": "O=C(NCC1(Cc2ccccc2)CCC1)c1noc(=O)[nH]1", "note": "[Example 88, N-((1-Benzylcyclobutyl)methyl)-5-oxo-4,5-dihydro-1,2,4-oxadiazole-3-carboxamide]", "mPTP Rat liver pIC50": 5.28}
{"compound": "Cc1cccc(CC2(CNC(=O)c3nn(C)c(=O)[nH]3)CCC2)c1", "note": "[Example 89, 1-Methyl-N-((1-(3-methylbenzyl)cyclobutyl)methyl)-5-oxo-4,5-dihydro-1H-1,2,4-triazole-3-carboxamide]", "mPTP Rat liver pIC50": 6.05}
{"compound": "Cn1nc(C(=O)NCC2(Cc3ccc(Cl)cc3F)CCC2)[nH]c1=O", "note": "[Example 90, N-((1-(4-Chloro-2-fluorobenzyl)cyclobutyl)methyl)-1-methyl-5-oxo-4,5-dihydro-1H-1,2,4-triazole-3-carboxamide]", "mPTP Rat liver pIC50": 5.61}
